How the values were obtained:
human hepatoma G2 cells = assay: Cytotoxicity assay (XTT colorimetric), Hep G2; type: cell-based; conditions: 48 h of drug exposure
rat glioma C6 cells = assay: Cytotoxicity assay (XTT colorimetric), C6 cells; type: cell-based; conditions: 48 h of drug exposure
[1] = tested on: hepatitis B virus transfected hepatoma cell lines, HepG 2.2.15 cells; assay: Cytotoxicity assay, 2.2.15 cells; type: cell-based, human; conditions: 48 h of drug exposure
[2] = tested on: transcriptional activity of hTERT; assay: SEAP reporter assay of hTERT expression, PhTERT-SEAP (hTERT-BJ1); type: cell-based, human; conditions: PhTERT-SEAP (hTERT-BJ1)
Protocol: (§1) Secreted alkaine phosphatase was used as the reporter system to monitor the transcriptional activity of hTERT. Here, about […] each were grown in 96-well plates and incubated at 37° C. for 24 h and changed with fresh media. Varying amounts of drugs were added and cells were incubated for another 24 h. Culture media were collected and heated at 65° C. for 10 min to inactivate heat-labile phosphatases. An equal amount of SEAP buffer (2 M diethanolamine, 1 mM MgCl2, and 20 mM […]) was added to the media and p-nitrophenyl phosphate was added to a final concentration of 12 mM. Absorptions at 405 nm were taken, and the rate of absorption increase is determined.
(§2) Culture media were changed every 3 days. […] The stable clones were selected using G418.

[3] = tested on: transcriptional activity of hTERT; assay: SEAP reporter assay of hTERT expression, PhTERT-SEAP (H1299); type: cell-based, human; conditions: PhTERT-SEAP(hTERT-H1299)
Protocol: as §1, §2

[4] = tested on: non-small-cell lung cancer cells H1299; assay: MTT relative viability, PhTERT-SEAP (H1299) cells; conditions: PhTERT-SEAP(hTERT-H1299)
hTERT-BJ1 cells = assay: MTT relative viability, PhTERT-SEAP (hTERT-BJ1) cells; conditions: PhTERT-SEAP (hTERT-BJ1)

## O=C(Nc1ccc(NC(=O)c2ccc(Cl)cc2Cl)c2c1C(=O)c1ccccc1C2=O)c1ccc(Cl)cc1Cl [VI8, 1,4-Bis(2,4-dichlorobenzoylamido)-9,10-anthracenedione]
Human hepatoma G2 cells
  IC50: > 20 µM
Rat glioma C6 cells
  IC50: > 20 µM
[1]
  IC50: > 20 µM
[2]; 1.7 μM
  Relative SEAP activity (%): 33 ± 11.2%
  SEAP/vibility: 0.32
[2]; 17 μM
  Relative SEAP activity (%): 25 ± 17.2%
  SEAP/vibility: 0.26
[2]; 171 μM
  Relative SEAP activity (%): 39 ± 12.8%
  SEAP/vibility: 0.52
[3]; 1.7 μM
  Relative SEAP activity (%): 85 ± 7.9%
  SEAP/vibility: 0.80
[3]; 17 μM
  Relative SEAP activity (%): 84 ± 7.1%
  SEAP/vibility: 0.89
[3]; 171 μM
  Relative SEAP activity (%): 87 ± 2.6%
  SEAP/vibility: 1.06
[4]; 1.7 μM
  Relative MTT viability (%): 106 ± 3.9%
[4]; 17 μM
  Relative MTT viability (%): 95 ± 1.3%
[4]; 171 μM
  Relative MTT viability (%): 83 ± 1.2%
hTERT-BJ1 cells; 1.7 μM
  Relative MTT viability (%): 102 ± 3.4%
hTERT-BJ1 cells; 17 μM
  Relative MTT viability (%): 98 ± 7.2%
hTERT-BJ1 cells; 171 μM
  Relative MTT viability (%): 76 ± 4.8%

## O=C(Nc1ccc(NC(=O)c2ccccc2F)c2c1C(=O)c1ccccc1C2=O)c1ccccc1F [VI10, 1,4-Bis(2-fluorobenzoylamido)-9,10-anthracenedione]
Human hepatoma G2 cells
  IC50: > 20 µM
Rat glioma C6 cells
  IC50: > 20 µM
[1]
  IC50: > 20 µM
[2]; 2.0 μM
  Relative SEAP activity (%): 95 ± 8.9%
  SEAP/vibility: 0.90
[2]; 20 μM
  Relative SEAP activity (%): 96 ± 9.8%
  SEAP/vibility: 0.96
[2]; 207 μM
  Relative SEAP activity (%): 79 ± 7.4%
  SEAP/vibility: 0.92
[3]; 2.0 μM
  Relative SEAP activity (%): 105 ± 7.8%
  SEAP/vibility: 0.91
[3]; 20 μM
  Relative SEAP activity (%): 107 ± 11.9%
  SEAP/vibility: 1.03
[3]; 207 μM
  Relative SEAP activity (%): 103 ± 14.4%
  SEAP/vibility: 1.34
[4]; 2.0 μM
  Relative MTT viability (%): 116 ± 2.4%
[4]; 20 μM
  Relative MTT viability (%): 104 ± 6.1%
[4]; 207 μM
  Relative MTT viability (%): 77 ± 2.6%
hTERT-BJ1 cells; 2.0 μM
  Relative MTT viability (%): 106 ± 6.5%
hTERT-BJ1 cells; 20 μM
  Relative MTT viability (%): 105 ± 8.5%
hTERT-BJ1 cells; 207 μM
  Relative MTT viability (%): 86 ± 7.3%

## O=C(Nc1ccc(NC(=O)c2ccccc2[N+](=O)[O-])c2c1C(=O)c1ccccc1C2=O)c1ccccc1[N+](=O)[O-] [VI11, 1,4-Bis(2-nitrobenzoylamido)-9,10-anthracenedione]
Human hepatoma G2 cells
  IC50: > 20 µM
Rat glioma C6 cells
  IC50: > 20 µM
[1]
  IC50: > 20 µM
[2]; 1.8 μM
  Relative SEAP activity (%): 102 ± 33.4%
  SEAP/vibility: 0.92
[2]; 18 μM
  Relative SEAP activity (%): 122 ± 19.5%
  SEAP/vibility: 1.14
[2]; 186 μM
  Relative SEAP activity (%): 114 ± 28.1%
  SEAP/vibility: 1.15
[3]; 1.8 μM
  Relative SEAP activity (%): 105 ± 4.3%
  SEAP/vibility: 1.00
[3]; 18 μM
  Relative SEAP activity (%): 107 ± 7.9%
  SEAP/vibility: 1.06
[3]; 186 μM
  Relative SEAP activity (%): 94 ± 8.0%
  SEAP/vibility: 1.10
[4]; 1.8 μM
  Relative MTT viability (%): 104 ± 6.3%
[4]; 18 μM
  Relative MTT viability (%): 101 ± 4.1%
[4]; 186 μM
  Relative MTT viability (%): 86 ± 5.3%
hTERT-BJ1 cells; 1.8 μM
  Relative MTT viability (%): 110 ± 4.1%
hTERT-BJ1 cells; 18 μM
  Relative MTT viability (%): 107 ± 6.3%
hTERT-BJ1 cells; 186 μM
  Relative MTT viability (%): 99 ± 3.2%

## O=C(Nc1ccc(NC(=O)c2cccc(F)c2)c2c1C(=O)c1ccccc1C2=O)c1cccc(F)c1 [VI12, 1,4-Bis(3-fluorobenzoylamido)-9,10-anthracenedione]
Human hepatoma G2 cells
  IC50: > 20 µM
Rat glioma C6 cells
  IC50: > 20 µM
[1]
  IC50: > 20 µM
[2]; 2.0 μM
  Relative SEAP activity (%): 107 ± 11.9%
  SEAP/vibility: 1.05
[2]; 20 μM
  Relative SEAP activity (%): 108 ± 15.5%
  SEAP/vibility: 1.11
[2]; 207 μM
  Relative SEAP activity (%): 95 ± 13.9%
  SEAP/vibility: 1.12
[3]; 2.0 μM
  Relative SEAP activity (%): 102 ± 2.9%
  SEAP/vibility: 0.98
[3]; 20 μM
  Relative SEAP activity (%): 110 ± 6.5%
  SEAP/vibility: 1.14
[3]; 207 μM
  Relative SEAP activity (%): 106 ± 9.4%
  SEAP/vibility: 1.59
[4]; 2.0 μM
  Relative MTT viability (%): 105 ± 6.8%
[4]; 20 μM
  Relative MTT viability (%): 96 ± 7.4%
[4]; 207 μM
  Relative MTT viability (%): 66 ± 5.5%
hTERT-BJ1 cells; 2.0 μM
  Relative MTT viability (%): 102 ± 1.5%
hTERT-BJ1 cells; 20 μM
  Relative MTT viability (%): 97 ± 2.9%
hTERT-BJ1 cells; 207 μM
  Relative MTT viability (%): 85 ± 2.6%

## O=C(Nc1ccc(NC(=O)c2c(Cl)cc(Cl)cc2Cl)c2c1C(=O)c1ccccc1C2=O)c1c(Cl)cc(Cl)cc1Cl [VI13, 1,4-Bis(2,4,6-trichlorobenzoylamido)-9,10-anthracenedione]
Human hepatoma G2 cells
  IC50: 2.77 µM
Rat glioma C6 cells
  IC50: > 20 µM
[1]
  IC50: 3.63 µM
[2]; 1.5 μM
  Relative SEAP activity (%): 31 ± 23.0%
  SEAP/vibility: 0.32
[2]; 15 μM
  Relative SEAP activity (%): 12 ± 12.5%
  SEAP/vibility: 0.19
[2]; 153 μM
  Relative SEAP activity (%): 4 ± 15%
  SEAP/vibility: 0.09
[3]; 1.5 μM
  Relative SEAP activity (%): 98 ± 4.5%
  SEAP/vibility: 0.87
[3]; 15 μM
  Relative SEAP activity (%): 66 ± 2.4%
  SEAP/vibility: 0.61
[3]; 153 μM
  Relative SEAP activity (%): 41 ± 3.9%
  SEAP/vibility: 0.03
[4]; 1.5 μM
  Relative MTT viability (%): 113 ± 4.8%
[4]; 15 μM
  Relative MTT viability (%): 107 ± 5.4%
[4]; 153 μM
  Relative MTT viability (%): 20 ± 3.3%
hTERT-BJ1 cells; 1.5 μM
  Relative MTT viability (%): 98 ± 8.5%
hTERT-BJ1 cells; 15 μM
  Relative MTT viability (%): 63 ± 7.0%
hTERT-BJ1 cells; 153 μM
  Relative MTT viability (%): 40 ± 22.2%

## O=C(Nc1ccc(NC(=O)c2c(F)ccc(F)c2F)c2c1C(=O)c1ccccc1C2=O)c1c(F)ccc(F)c1F [VI14, 1,4-Bis(2,3,6-trifluorobenzoylamido)-9,10-anthracenedione]
Human hepatoma G2 cells
  IC50: > 20 µM
Rat glioma C6 cells
  IC50: > 20 µM
[1]
  IC50: > 20 µM
[2]; 1.8 μM
  Relative SEAP activity (%): 35 ± 14.1%
  SEAP/vibility: 0.35
[2]; 18 μM
  Relative SEAP activity (%): 22 ± 24.4%
  SEAP/vibility: 0.25
[2]; 180 μM
  Relative SEAP activity (%): 31 ± 7.9%
  SEAP/vibility: 0.44
[3]; 1.8 μM
  Relative SEAP activity (%): 91 ± 5.2%
  SEAP/vibility: 0.82
[3]; 18 μM
  Relative SEAP activity (%): 97 ± 4.1%
  SEAP/vibility: 1.09
[3]; 180 μM
  Relative SEAP activity (%): 91 ± 3.3%
  SEAP/vibility: 1.64
[4]; 1.8 μM
  Relative MTT viability (%): 111 ± 2.9%
[4]; 18 μM
  Relative MTT viability (%): 89 ± 3.7%
[4]; 180 μM
  Relative MTT viability (%): 55 ± 3.3%
hTERT-BJ1 cells; 1.8 μM
  Relative MTT viability (%): 102 ± 3.3%
hTERT-BJ1 cells; 18 μM
  Relative MTT viability (%): 90 ± 6.0%
hTERT-BJ1 cells; 180 μM
  Relative MTT viability (%): 70 ± 6.8%

## O=C(Nc1ccc(NC(=O)c2cc(F)c(F)cc2F)c2c1C(=O)c1ccccc1C2=O)c1cc(F)c(F)cc1F [VI15, 1,4-Bis(2,4,5-trifluorobenzoylamido)-9,10-anthracenedione]
Human hepatoma G2 cells
  IC50: > 20 µM
Rat glioma C6 cells
  IC50: > 20 µM
[1]
  IC50: 3.35 µM
[2]; 1.6 μM
  Relative SEAP activity (%): 117 ± 14.2%
  SEAP/vibility: 1.12
[2]; 16 μM
  Relative SEAP activity (%): 114 ± 20.4%
  SEAP/vibility: 1.29
[2]; 161 μM
  Relative SEAP activity (%): 115 ± 30.8%
  SEAP/vibility: 1.44
[3]; 1.6 μM
  Relative SEAP activity (%): 109 ± 10.8%
  SEAP/vibility: 1.20
[3]; 16 μM
  Relative SEAP activity (%): 118 ± 10.3%
  SEAP/vibility: 1.45
[3]; 161 μM
  Relative SEAP activity (%): 104 ± 8.2%
  SEAP/vibility: 1.73
[4]; 1.6 μM
  Relative MTT viability (%): 90 ± 6.6%
[4]; 16 μM
  Relative MTT viability (%): 81 ± 1.9%
[4]; 161 μM
  Relative MTT viability (%): 60 ± 5.0%
hTERT-BJ1 cells; 1.6 μM
  Relative MTT viability (%): 104 ± 4.5%
hTERT-BJ1 cells; 16 μM
  Relative MTT viability (%): 89 ± 5.0%
hTERT-BJ1 cells; 161 μM
  Relative MTT viability (%): 80 ± 3.8%

From patent US20050009924A1 (priority 2003, published 2005)
